For orientation: Kd means the free concentration of one partner at which half of the binding sites on the other are occupied at equilibrium, for simple one-to-one binding.

Drawing on BindingDB's records for patent US20240072809 (Avilar Therapeutics, 2024), this text covers Kd for six compounds.

The target in the experiment is T1, Asialoglycoprotein receptor 1 (Homo sapiens, UniProt P07306).
T1 sequence (P07306 whole entry): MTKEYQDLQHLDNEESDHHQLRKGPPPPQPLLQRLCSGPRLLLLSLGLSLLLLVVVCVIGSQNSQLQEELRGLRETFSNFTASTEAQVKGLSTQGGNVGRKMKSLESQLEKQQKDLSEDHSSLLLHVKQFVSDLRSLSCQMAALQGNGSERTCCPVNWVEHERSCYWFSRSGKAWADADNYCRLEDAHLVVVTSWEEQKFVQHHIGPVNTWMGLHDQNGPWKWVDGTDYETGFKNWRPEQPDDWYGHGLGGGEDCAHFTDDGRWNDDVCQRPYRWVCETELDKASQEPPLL
Put plainly: ASGPR Measured Using Surface Plasmon Resonance (SPR). The procedure:
Recombinant ASGPR protein is first biotinylated using Maleimide-PEG2-biotin reagent (Pierce, 19-fold molar excess) in phosphate-buffered saline (PBS) solution overnight at 4° C. Excess amount of biotin in the reaction mixture is removed by Zeba desalting columns (Thermo). Biotinylation is confirmed by mass spectroscopic analysis of ASGPR. Biotinylated ASGPR is then immobilized on SA sensor chips (GE Healthcare) with an immobilization level ranging from 1500-3000 resonance units (RU). The running buffer is 50 mM Tris, pH7.5, 150 mM NaCl, 50 mM CaCl2), 0.01% P20, 3% DMSO. […] The compounds are diluted 3 folds with total 8 concentration points. Solutions containing serially diluted compounds are injected at a flow rate of 50 μL/min for 60 sec followed by a 180 sec dissociation phase for each concentration. Data is processed using the analysis software in Biacore 8K to perform background subtraction, double referencing and solvent correction.

In turn, `CO[C@@H]1O[C@H](CO)[C@H](O)[C@H](O)[C@H]1Nc1ncns1` [US20240072809, Compound A110] yielded a Kd of under 100 µM.

Compound `OCCC[C@@H]1CO[C@H](CO)[C@H](O)[C@@H]1O` [US20240072809, Compound A162] yielded a Kd of over 1000 µM.

As for `OC[C@H]1OC[C@H](Nc2nc(-c3ccncc3)ns2)[C@@H](O)[C@H]1O` [US20240072809, Compound A319], the Kd is under 100 µM.

The compound `OC[C@H]1OC[C@@H](Nc2ncns2)[C@@H](O)[C@H]1O` [US20240072809, Compound A147] came in with a Kd of under 100 µM.

As for `OC[C@H]1OC[C@@H](Nc2nc(Cl)cs2)[C@@H](O)[C@H]1O` [US20240072809, Compound A148], the Kd was over 20 µM.

Regarding `OC[C@H]1OC[C@H](Nc2nc(Cl)cs2)[C@@H](O)[C@H]1O` [US20240072809, Compound A99], the Kd was over 1000 µM.
